For orientation: bioavailability means the share of a dose that reaches the circulation, judged against a reference dose that is usually intravenous. Broadly, the Tmax is the time at which the peak concentration occurs.

Data set [1] can be described thus: Metabolic stability in hepatocytes, CD-1 mice. As to conditions: mouse, cryopreserved hepatocytes, CD-1 mice hepatocytes. It is filed as in vitro ADME. As to the method:
Metabolic stabilities of assay compound in hepatocytes of CD-1 mice, SD rats, beagle dogs, cynomolgus monkeys, and human were assayed, respectively.
Several 96-well sample precipitation plates were prepared and named T0, T15, T30, T60, T90, T120, T0-MC, T120-MC and blank substrates, respectively. The recovery medium and incubation medium were taken out in advance and placed in a 37° C. water bath for pre-heating. Cryopreserved hepatocytes were removed from the liquid nitrogen tank and immediately immersed in a 37° C. water bath (approximately 90 seconds). After the cryopreserved hepatocytes had thawed and loosened, they were poured into a centrifuge tube containing 40 mL of recovery medium, and the tube was gently inverted to allow the cells to be resuspended in the recovery medium. The cells were centrifuged at 100×g at room temperature for 5 min, and the supernatant was removed. The hepatocytes were resuspended in an appropriate volume of incubation medium, and the cell viability was calculated by Trypan Blue staining method. 198 μL of hepatocyte suspension (0.51×10^6 cells/mL) was added to the preheated incubation plate. For the culture medium control group, 198 μL of hepatocyte-free incubation medium was added to T0-MC and T120-MC incubation plate. All incubation plates were pre-incubated in a 37° C. incubator for 10 minutes. Then 2 μL of working solutions of the assay sample and the control compound were added, respectively, and the mixture was mixed well. The incubation plate was immediately put into the shaker in the incubator, and the reaction was initiated while starting the timer. For each time point of each compound, 2 duplicate samples were prepared. The incubation conditions were 37° C., saturated humidity, and 5% CO2. […] All samples were mixed well and analyzed by LC/MS/MS.

Data set [2] is described as follows: In vitro stability in liver microsomes, SD rats. It is filed as in vitro ADME. As to conditions: rat, 0.5 mg/mL. As to the method: Metabolic stabilities of the assay compound in liver microsomes of CD-1 mice, SD rats, beagle dogs, cynomolgus monkeys, and human were assayed, respectively.
Two 96-well incubation plates were prepared and named T60 incubation plate and NCF60 incubation plate, respectively. 445 μL of microsomal working solutions (liver microsomal protein concentration of 0.56 mg/mL) were added to the T60 incubation plate and the NCF60 incubation plate, respectively, and then the above incubation plates were pre-incubated in a 37° C. water bath for about 10 minutes.
After the pre-incubation, 5 μL of working solutions of the assay sample or the control compound were added to the T60 incubation plate and the NCF60 incubation plate, respectively, and the mixture was mixed well. 50 μL of potassium phosphate buffer was added to each well of the NCF60 incubation plate to initiate the reaction. 180 μL of stop solution (200 ng/mL tolbutamide and 200 ng/mL labetalol in acetonitrile) and 6 uL of NADPH regeneration system working solution were added to the T0 stop plate, and 54 μL of sample was transferred from T60 incubation plate to T0 stop plate (generation of T0 sample). The reaction was initiated by adding 44 μL of NADPH regeneration system working solution to each well of the T60 incubation plate. Only 54 μL of microsome working solution, 6 uL of NADPH regeneration system working solution and 180 μL of stop solution were added to the Blank plate. Therefore, in samples of the assay compound or the control compound, the final reaction concentration of compound, testosterone, diclofenac and propafenone was 1 μM, the concentration of liver microsomes was 0.5 mg/mL, and the final reaction concentrations of DMSO and acetonitrile in the reaction system were 0.01% (v/v) and 0.99% (v/v), respectively. […] All samples were injected and analyzed by liquid chromatography-tandem mass spectrometry.
For orientation: Liver microsomes are a subcellular fraction often used to study metabolism.

A short description of data set [3]: Pharmacokinetics by oral administration and intravenous injection in SD rats. It is filed as in vivo. The settings on record: for Area under the plasma concentration-time curve, AUCu: AUC0-last × PPB(Unbound %); for Vd: SD, iv, 2 mg/kg; for AUC(0-t): read-out: Area under the plasma concentration-time curve, AUC0-last. As to the method:
• 1) Assay on the pharmacokinetics of the assay compound by oral administration and intravenous injection in SD rats
The assay compound was mixed with 5% o dimethyl sulfoxide/95% o (10% hydroxypropyl-β-cyclodextrin) solution. The mixture was vortexed and sonicated to prepare a 1 mg/mL clear solution, which was filtered through a microporous membrane for later use. Male SD rats aged 7 to 10 weeks were selected, and administered candidate compound solutions intravenously or orally. Whole blood was collected for a certain period of time, and prepared to obtain plasma. Drug concentration was analyzed by LC-MS/MS method, and pharmacokinetic parameters were calculated by Phoenix WinNonlin software (Pharsight, USA).

Where two headings read alike, the source gives them in different places.

For the compound `C=C(F)C(=O)N1CCN(c2nc(OC[C@@]34CCCN3C[C@H](F)C4)nc3c2CO[C@H](c2c(F)c(N)cc(C)c2C(F)(F)F)C3)C[C@@H]1CC#N` [Compound of formula (I)], the half-life at 1 μM was determined as 9.5 min in data set [1] and 23 min in data set [2]. Also, the hepatocyte CLint at 1 μM in data set [1] (read-out: CLint(hep)) was found to be 146 µL/min/1e6 cells. Besides, the values for the CLint scaled at 1 μM in data set [1] (read-out: CLint(liver)) and in data set [2] were 1740 mL/min/kg and 108 mL/min/kg, respectively. Moreover, in data set [2] (read-out: CLint(hep)), the microsomal CLint at 1 μM is 60.2 µL/min/mg. Moreover, the “Area under the plasma concentration-time curve, AUCu” value turned out to be 0.0313 µM·h in data set [3] (intravenous injection, 2.0 mg/kg) and 0.0478 µM·h in data set [3] (oral administration, 9.8 mg/kg). Further, the Vd in data set [3] (male, rat, plasma, intravenous injection, 2.0 mg/kg, Vdss/PPB(Unbound %), read-out: Apparent volume of distribution, Vdss, u) was 221 L/kg; in data set [3] (male, rat, plasma, intravenous injection, 2.0 mg/kg, read-out: Apparent volume of distribution, Vdss), 10.6 L/kg. For the same compound, the AUC(0-t) in data set [3] (male, rat, plasma, intravenous injection, 2.0 mg/kg) was found to be 0.653 µM·h; in data set [3] (male, rat, plasma, oral administration, 9.8 mg/kg) it was 0.995 µM·h. The clearance in data set [3] (male, rat, plasma, intravenous injection, 2.0 mg/kg, read-out: Clearance rate, CL) worked out at 71.5 mL/min/kg. The half-life in data set [3] (male, rat, plasma, intravenous injection, 2.0 mg/kg, read-out: Half-life time, T1/2 (converted)) was 114 min. Besides, in data set [3] (male, rat, plasma, oral administration, 9.8 mg/kg, read-out: Bioavailability F (%)), the bioavailability was 30.5%. In addition, in data set [3] (male, rat, plasma, oral administration, 9.8 mg/kg, read-out: Peak concentration, Cmax), the Cmax came to 220 nM. The Tmax in data set [3] (male, rat, plasma, oral administration, 9.8 mg/kg, read-out: Time-to-peak, Tmax) is 90 min. The “Peak concentration, Cmax, u” value in data set [3] (oral administration, 9.8 mg/kg, Cmax × PPB(Unbound %)) is given as 10.6 nM.

(Values after patent US20250129102A1, “CRYSTAL FORM OF PYRIMIDINE HETEROCYCLIC COMPOUND AND PREPARATION METHOD THEREFOR” (D3 Bio (Wuxi) Co., Ltd., priority 2021, published 2025).)
